ChEMBL document CHEMBL3044736, “Synthesis, characterization, solvatochromic properties, and antimicrobial evaluation of 5-acetyl-2-thioxo-dihydro-pyrimidine-4,6-dione-based chalcones” (2013)
Values after ≈ are worked out from the molar mass of the structure shown.

What was measured:
Assay type in all cases: functional
Penicillium = assay: Antimicrobial activity against Penicillium wild strain by agar cup diffusion method
Aspergillus clavatus = assay: Antimicrobial activity against Aspergillus clavatus MTCC 1323 by agar cup diffusion method
Trichophyton rubrum = assay: Antimicrobial activity against Trichophyton rubrum MTCC 296 by agar cup diffusion method
Candida albicans = assay: Antimicrobial activity against Candida albicans MTCC 227 by agar cup diffusion method

Work on COC1=CC(=O)C[C@@H](C)[C@]12Oc1c(Cl)c(OC)cc(OC)c1C2=O [GRISEOFULVIN] yielded an MIC (Penicillium) of 100 µg/mL (≈ 283 µM), an MIC (Aspergillus clavatus) of 100 µg/mL (≈ 283 µM) and an MIC (Trichophyton rubrum) of 500 µg/mL (≈ 1420 µM). It also gave an MIC (Candida albicans) of 100 µg/mL (≈ 283 µM).
